Experiments:
[1] = tested on: HEK293FT shSDHB / shFH / shCTRL cells; test: Clonogenic survival assay, DNA damaging agents, SDHB or FH knockdown cells; format: cell-based, human; conditions: SDHB or FH knockdown cells compared to control shRNA
Experimental: (§1) Western Blot analyses. Western blot analysis of protein levels was conducted by loading 30 μg of whole cell lysate onto a 4-20% polyacrylamide gel. Total protein was transferred to a nitrocellulose membrane. After blocking with 5% milk, membranes were incubated with primary antibodies. Antibodies used were: Rabbit monoclonal anti-Fumarase (D9C5,Cell Signaling Technologies) 1:1000 in 5% BSA, mouse monoclonal anti-SDHB (21A11AE7, Abcam) 1:1000 in % 5 milk, mouse monoclonal anti-Vinculin (SPM227, Abcam) 1:1000 in 5% milk, rabbit polyclonal anti-Histone 3 Lysine 36 trimethyl (9050, Abcam) 1:500 in 5% BSA, anti-Histone 3 Lysine 9 trimethyl (D4W1U, Cell Signaling Technologies) 1:1000 in 5% BSA, mouse monoclonal anti-Beta Actin (60008, Protein Tech) 1:5000 5% milk, rabbit Polyclonal anti-Histone H3 (ab1791, Abcam 1:5000 5% BSA), rabbit Polyclonal anti-PAR (4336-BPC-100, Trevigen) 1:5000 5% BSA, mouse monoclonal anti-GAPDH (60004 Protein Tech) 1:5000 5% milk, mouse monoclonal anti-BRCA2 (ab1, Millipore, 1:1000 5% Milk), mouse monoclonal anti-BRCA1 (D-9, Santa Cruz, 1:200 5% milk), mouse monoclonal anti-RAD51(14B4 Novus bio, 1:1000 5% milk). Patient sample blots were reprobed. […] Doxycycline induced knockdown was monitored by western blot as well as by RFP fluorescence from the internal and dox-inducible reporter on the TRIPZ construct. […]

[2] = tested on: U2OS DR-GFP cells; test: U2OS DR-GFP HR assay; format: cell-based; conditions: for suppression of HR, DR-GFP assay: metabolite added to cell culture medium, 24 h (FIG. 3A)
[3] = tested on: UOK 268; test: Neutral comet assay in UOK 268 HLRCC cells; format: cell-based, human; conditions: for levels of DNA DSBs after exogenous metabolite: FH-deficient UOK 268 cells, 24 h (FIG. 3H)
[4] = tested on: UOK 262; test: Neutral comet assay in UOK 262 HLRCC cells; format: cell-based, human; conditions: for levels of DNA DSBs after exogenous metabolite: FH-deficient UOK 262 cells, 24 h (FIG. 3H)
[5] = tested on: KDM4A and KDM4B; test: Western blot of histone trimethylation (KDM4A/B activity) in YUNK1 cells; format: cell-based, human; conditions: increasing doses, 24 h (FIGS. 7E-7F)
Experimental: Western Blot analyses. Western blot analysis of protein levels was conducted by loading 30 μg of whole cell lysate onto a 4-20% polyacrylamide gel. Total protein was transferred to a nitrocellulose membrane. After blocking with 5% milk, membranes were incubated with primary antibodies. Antibodies used were: Rabbit monoclonal anti-Fumarase (D9C5,Cell Signaling Technologies) 1:1000 in 5% BSA, mouse monoclonal anti-SDHB (21A11AE7, Abcam) 1:1000 in % 5 milk, mouse monoclonal anti-Vinculin (SPM227, Abcam) 1:1000 in 5% milk, rabbit polyclonal anti-Histone 3 Lysine 36 trimethyl (9050, Abcam) 1:500 in 5% BSA, anti-Histone 3 Lysine 9 trimethyl (D4W1U, Cell Signaling Technologies) 1:1000 in 5% BSA, mouse monoclonal anti-Beta Actin (60008, Protein Tech) 1:5000 5% milk, rabbit Polyclonal anti-Histone H3 (ab1791, Abcam 1:5000 5% BSA), rabbit Polyclonal anti-PAR (4336-BPC-100, Trevigen) 1:5000 5% BSA, mouse monoclonal anti-GAPDH (60004 Protein Tech) 1:5000 5% milk, mouse monoclonal anti-BRCA2 (ab1, Millipore, 1:1000 5% Milk), mouse monoclonal anti-BRCA1 (D-9, Santa Cruz, 1:200 5% milk), mouse monoclonal anti-RAD51(14B4 Novus bio, 1:1000 5% milk). Patient sample blots were reprobed. Reprobed blots were stripped with Restore Plus Stripping Buffer (Thermo Fischer) and re-blocked with 5% milk prior to reprobing. Blots were tested to ensure all residual detection reagents were removed. Dual Color Precision Plus Protein standard was used as a molecular weight standard for western blots. Cell Culture. YUNK1 cells were generated in culture from uninvolved cortical renal tissue from a patient undergoing a radical nephrectomy for kidney cancer. […] YUNK1 was immortalized with a lentiviral vector containing SV40 Large T antigen (Addgene plasmid #22298). Lentiviral production was performed using HEK293FT (ATCC) using plasmids pMDLg/pRRE, pRSV-Rev, pCMV-VSG-G (Addgene #12251, 12253, and 8454). YUNK1 cells were maintained in DMEM+10% FBS+1% Pen/Strep. HEK293FT cells (ATCC) were maintained in DMEM+10% FBS+1% Pen/Strep. After lentiviral infections with TRIPZ-shRNA or GIPZ lentiviruses, cells were maintained in DMEM+10% FBS+1% Pen/Strep+2 μg/mL Puromycin. For dox inducible shRNAs, expression was induced with 2 μg/mL doxycycline. Doxycycline induced knockdown was monitored by western blot as well as by RFP fluorescence from the internal and dox-inducible reporter on the TRIPZ construct. U2OS DR-GFP cells were maintained in DMEM+10% FBS+1% Pen/Strep. UOK 262 and UOK 268 HLRCC cells are previously described in Yang, et al., 2010, Cancer Gent. Cytogent. 196:45-55; Yang, et al., 205, Cancer Genet. 205:377-390. They were obtained courtesy of W. M. Linehan and were maintained in DMEM+10% FBS+1% Pen/Strep+1 mM Sodium-Pyruvate. NCCFH1 cells were maintained in DMEM+10% FBS+1% Pen/Strep+1 mM Sodium-Pyruvate. […]

[6] = tested on: UOK 262; test: Clonogenic survival assay in cell lines of renal origin; format: cell-based, human; conditions: FIG. 4C (BMN-673), FIG. 8J (mitomycin C)
[7] = tested on: HEK293FT and YUNK1 cells; test: Clonogenic survival assay, PARP inhibitors, knockdown or metabolite-treated cells; format: cell-based, human
[8] = tested on: HEK293FT cells; test: Immunofluorescence foci assay in HEK293FT cells; format: cell-based, human; conditions: metabolite added to culture media (FIGS. 3E-3G)
Experimental: as §1

[9] = tested on: YUNK1 cells; test: Immunofluorescence foci assay in YUNK1 cells; format: cell-based, human
Experimental: as §1

N.N.[Cl][Pt][Cl] [cisplatin]
clonogenic survival in response to DNA damaging agent [1]: substantially reduced survival

COC(=O)CCC(=O)OC [dimethyl-succinate]
suppression of HR, DR-GFP assay [2]: sufficient to suppress HR in a dose-dependent manner

O=C(O)/C=C/C(=O)O [fumarate]
levels of DNA DSBs after exogenous metabolite [3]: no further effect | levels of DNA DSBs after exogenous metabolite [4]: no further effect | H3K9me3 levels [5]: dose-dependent increase | H3L36me3 levels [5]: dose-dependent increase

CO[C@@]12[C@H](COC(N)=O)C3=C(C(=O)C(C)=C(N)C3=O)N1C[C@@H]1N[C@@H]12 [mitomycin C]
sensitivity of UOK 262 relative to FH-proficient cell lines of renal origin, clonogenic survival [6]: markedly more sensitive | clonogenic survival in response to DNA damaging agent [1]: substantially reduced survival

CCOC(=O)/C=C/C(=O)O [monoethyl-fumarate]
suppression of HR, DR-GFP assay [2]: sufficient to suppress HR in a dose-dependent manner

CCOC(=O)CCC(=O)O [monoethyl-succinate]
suppression of HR, DR-GFP assay [2]: sufficient to suppress HR in a dose-dependent manner

O=C(c1cc(Cc2n[nH]c(=O)c3ccccc23)ccc1F)N1CCN(C(=O)C2CC2)CC1 [olaparib]
sensitivity to the PARP inhibitor, clonogenic survival ([7]; knockdown of SDHB and FH or exogenous dimethyl-fumarate or succinate (FIGS. 4A-4B, 8E-8I)): dramatic sensitivity

O=C(O)CCC(=O)O [succinate]
levels of DNA DSBs after exogenous metabolite [3]: no further effect | p53BP1 foci [8]: Increases | γH2AX foci [8]: Increases | suppression of HR, DR-GFP assay [2]: sufficient to suppress HR in a dose-dependent manner | levels of DNA DSBs after exogenous metabolite [4]: no further effect | H3K9me3 levels [5]: dose-dependent increase | H3L36me3 levels [5]: dose-dependent increase | induction of sensitivity to PARP inhibitors olaparib and BMN-673 by exogenous metabolite ([7]; metabolite added to culture media (2 mM succinate; 30 or 60 μM dimethyl-fumarate)): induced dramatic sensitivity | γH2AX foci ([9]; 24 h (FIGS. 6I-6J)): Increases | p53BP1 foci ([9]; 24 h (FIGS. 6K-6L)): Increases

COC(=O)CCC(=O)C(=O)OC [αKG, dimethyl-α-ketoglutarate]
rescue of elevated DSB phenotype (comet assay) ([3]; FH deficient UOK 268 cells, 2 mM dimethyl-α-ketoglutarate (FIG. 3J)): rescued the phenotype | rescue of HR defect induced by succinate or fumarate, DR-GFP assay ([2]; co-treatment with dimethyl-succinate or dimethyl-fumarate (FIG. 3L)): rescued | rescue of elevated DSB phenotype (comet assay) ([4]; FH deficient UOK 262 cells, 2 mM dimethyl-α-ketoglutarate (FIG. 3J)): rescued the phenotype

Source: patent US11311538B2, “Compositions and methods for targeting cancers” (YALE UNIVERSITY, priority 2018, dated 2022)
